The values below come from ChEMBL document CHEMBL1201862, “PubChem BioAssay data set” (2004).

The structures appear in SMILES notation. Where a name gives a salt, the structure may show the parent alone.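 A five-concentration, 48-hour dose response in 96-well plates underlies each endpoint, interpolated linearly between surrounding concentrations. The concentration for 50% growth inhibition is given as GI50.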 Calls of active or inactive are those of the source. Cut-off read from the data, not from the text of the source: active = GI50 up to about 1.1 µM and inactive = higher. Bounds are passed on as bounds.

Test systems include SN12C; SK-OV-3; UACC-62; SNB-75; SW-620; HCT-15; A549; OVCAR-5; CAKI-1; UACC-257; NCI-H226; SR; M14; RPMI-8226; CCRF-CEM; SK-MEL-28; NCI/ADR-RES; DU-145; MDA-MB-231.
Holding throughout (assay): growth of human tumour cells (NCI), 48 h

Take `Fc1cccc(Cl)c1C1SCc2nc3ccccc3n21` (configuration not stated): the GI50 in the assay with SN12C was 41.4 µM (inactive); in the assay on SK-OV-3, 22.9 µM (inactive); in the assay with UACC-62, 15.7 µM (inactive); in the assay with SNB-75, 38.5 µM (inactive); in the assay with SW-620, 37.2 µM (inactive); in the assay with HCT-15, 31.3 µM. Further, the GI50 with A549 is 37.2 µM (inactive); in the assay on OVCAR-5, 31.8 µM (inactive); in the assay on CAKI-1, 27.1 µM (inactive); with UACC-257, 21.9 µM (inactive); in the assay on NCI-H226 it was 36.6 µM (inactive); in the assay on SR, 17.3 µM (inactive). Also, the GI50 in the assay on M14 is 34 µM (inactive); in the assay with RPMI-8226, 17.1 µM (inactive); with CCRF-CEM it was 25.3 µM (inactive).
`O=C(c1ccccc1)c1c(CC(O)c2ccncc2)n(C(=O)c2ccccc2)c2ccccc12` (configuration not stated): the GI50 in the assay with UACC-62 is 16.5 µM (inactive); in the assay with SNB-75, 7.83 µM (inactive); in the assay with SW-620, 18.7 µM (inactive); in the assay with HCT-15, 17.4 µM; in the assay with A549, 17.8 µM (inactive); in the assay with OVCAR-5, 15.8 µM (inactive). Also, the GI50 in the assay on CAKI-1 was 22.3 µM (inactive); with UACC-257 it was 17.5 µM (inactive); in the assay with NCI-H226, 14.7 µM (inactive); in the assay on SR it was 16.6 µM (inactive); in the assay on M14, 16.9 µM (inactive); in the assay with RPMI-8226 it was 19.6 µM (inactive). For the same compound, the results for the GI50 in the assay with SK-MEL-28 and in the assay with CCRF-CEM were 17.7 µM (inactive) and 25.1 µM (inactive), respectively.
Consider `COc1cc(OC)c2c(O)cc(CC(C)O)cc2c1` (configuration not stated), for which the GI50 is > 100 µM (inactive) with SN12C; > 100 µM (inactive) in the assay on SK-OV-3; > 100 µM (inactive) in the assay with UACC-62; > 100 µM (inactive) in the assay with SNB-75; > 100 µM (inactive) in the assay with SW-620; > 100 µM with HCT-15. The GI50 in the assay with A549, in the assay with OVCAR-5, in the assay on CAKI-1, in the assay with UACC-257, in the assay on SR and with M14 was > 100 µM (inactive) throughout. Besides, the GI50 with RPMI-8226, with SK-MEL-28 and in the assay with CCRF-CEM was > 100 µM (inactive) each time.
For the compound `NC(CCCNc1ccc(O)cc1)C(=O)O` (configuration not stated), the GI50 is > 47.5 µM (inactive) in the assay with SN12C; > 100 µM (inactive) in the assay with SK-OV-3; 18.5 µM (inactive) with UACC-62; 42.5 µM (inactive) in the assay on SNB-75; 21.3 µM (inactive) in the assay with SW-620; 30.1 µM with HCT-15. Further, the GI50 with A549 is > 94.2 µM (inactive); with OVCAR-5, > 100 µM (inactive); in the assay on CAKI-1, 48.2 µM (inactive); in the assay on UACC-257 it was 27.8 µM (inactive); in the assay on NCI-H226 it was > 100 µM (inactive); in the assay with SR it was 25.3 µM (inactive). The GI50 is 31.8 µM (inactive) in the assay with M14, 24.4 µM (inactive) with RPMI-8226, 42.6 µM (inactive) in the assay with SK-MEL-28 and 23.4 µM (inactive) with CCRF-CEM.
For the compound `CCC1=CC2CN3CCc4c([nH]c5ccccc45)C(C(=O)OC)(C2)C13` (configuration not stated), the GI50 was 45.5 µM (inactive) with NCI/ADR-RES; 47.4 µM (inactive) in the assay on SN12C; 69.3 µM (inactive) in the assay on SK-OV-3; 37.8 µM (inactive) in the assay on UACC-62; 48.4 µM (inactive) in the assay with SNB-75; 41.9 µM (inactive) in the assay on SW-620. Besides, the GI50 in the assay on HCT-15 was 44.2 µM; with A549, 47.6 µM (inactive); in the assay on OVCAR-5, 7.4 µM (inactive); with CAKI-1 it was 20.8 µM (inactive); in the assay on UACC-257, 54.8 µM (inactive); in the assay on NCI-H226, 11 µM (inactive). Further, the GI50 in the assay with RPMI-8226 is 18.5 µM (inactive); with SK-MEL-28, 53.3 µM (inactive); with CCRF-CEM, 50.5 µM (inactive).
Take `N=C(NC(=N)Nc1ccc(S(=O)(=O)Nc2cnc3ccccc3n2)cc1)Nc1ccc(Br)cc1`: the GI50 in the assay with SN12C was > 100 µM (inactive); in the assay on SK-OV-3, > 100 µM (inactive); with UACC-62 it was > 100 µM (inactive); in the assay on SNB-75, 40.6 µM (inactive); with SW-620, > 100 µM (inactive); with HCT-15 it was > 100 µM. Besides, the GI50 in the assay on A549, in the assay on OVCAR-5, with CAKI-1, in the assay on UACC-257, in the assay on NCI-H226 and in the assay on SR was > 100 µM (inactive) in each case. In addition, the GI50 in the assay with M14, with RPMI-8226, in the assay with SK-MEL-28 and with CCRF-CEM was > 100 µM (inactive) each time.
As for `COc1ccc(Cc2nc3cc(C(F)(F)F)ccc3n2CCCN(C)C)cc1`, the GI50 in the assay with NCI/ADR-RES was 14.6 µM (inactive); with SK-OV-3 it was 16.7 µM (inactive); in the assay with UACC-62 it was 17.7 µM (inactive); in the assay on SW-620, 20.2 µM (inactive); in the assay on HCT-15 it was 20 µM; in the assay with A549 it was 17.3 µM (inactive). Moreover, the GI50 in the assay with DU-145 is 19.2 µM (inactive); in the assay on MDA-MB-231, 24 µM (inactive); in the assay with OVCAR-5, 22.9 µM (inactive); with CAKI-1, 18.2 µM (inactive); with UACC-257, 17.1 µM (inactive); in the assay on NCI-H226 it was 36.1 µM (inactive). In addition, the figures for the GI50 with M14, in the assay with SK-MEL-28 and in the assay with CCRF-CEM were 14.7 µM (inactive), 18 µM (inactive) and 22 µM (inactive), respectively.
In the case of `Cn1cc2ccccc2c1-c1nc(F)nc(Nc2ccc(N)cc2)n1`, the GI50 is 17.2 µM (inactive) in the assay with SN12C; 11.6 µM (inactive) in the assay with SK-OV-3; 11.9 µM (inactive) in the assay with SNB-75; 14.8 µM (inactive) in the assay with SW-620; 4.97 µM in the assay on HCT-15; 18.1 µM (inactive) in the assay with A549. Also, the GI50 in the assay on OVCAR-5 was 26.4 µM (inactive); in the assay on CAKI-1, 15 µM (inactive); in the assay on UACC-257, 17.3 µM (inactive); with NCI-H226, 16.5 µM (inactive); in the assay on SR, 16.8 µM (inactive); with M14 it was 13.6 µM (inactive). In addition, the GI50 in the assay with RPMI-8226 is 13.3 µM (inactive); with SK-MEL-28 it was 15.5 µM (inactive); in the assay on CCRF-CEM, 12.7 µM (inactive).
Take `NC1=NC(c2ccccc2)CC(c2cc(Cl)cc(Br)c2O)=N1` (configuration not stated): the GI50 was 9.35 µM (inactive) in the assay on NCI/ADR-RES; 13.4 µM (inactive) with SN12C; 24.7 µM (inactive) in the assay on SK-OV-3; 10.1 µM (inactive) in the assay on UACC-62; 14 µM (inactive) in the assay on SNB-75; 8.2 µM (inactive) in the assay with SW-620. For the same compound, the GI50 was 7.64 µM in the assay on HCT-15; 14.6 µM (inactive) in the assay on A549; 19.6 µM (inactive) in the assay with OVCAR-5; 13.3 µM (inactive) with CAKI-1; 14.7 µM (inactive) in the assay on UACC-257; 18.9 µM (inactive) in the assay on NCI-H226. The GI50 in the assay on SR was 6.43 µM (inactive); in the assay on M14, 14.7 µM (inactive); with RPMI-8226, 7.31 µM (inactive); with SK-MEL-28, 13.1 µM (inactive); in the assay on CCRF-CEM, 7.71 µM (inactive).
In the case of `COc1cccc2c1C(=O)c1c(O)c3c(c(O)c1C2=O)C[C@@](O)(C(=O)CO)CC3OC1CC(NCCCC(OC(C)=O)OC(C)=O)C(O)C(C)O1` (some centres not stated), the GI50 is 0.00152 µM (active) in the assay with SN12C; 0.00501 µM (active) with SK-OV-3; 0.000861 µM (active) in the assay with UACC-62; 0.0015 µM (active) in the assay with SNB-75; 0.00202 µM (active) in the assay with SW-620; 0.00225 µM in the assay on HCT-15. The GI50 was 0.00333 µM (active) with A549; 0.00267 µM (active) in the assay with OVCAR-5; 0.00296 µM (active) in the assay on CAKI-1; 0.00269 µM (active) with UACC-257; 0.00153 µM (active) with NCI-H226; < 0.0001 µM (active) with SR. Also, the GI50 with M14 is 0.000867 µM (active); with RPMI-8226, 0.00322 µM (active); in the assay on SK-MEL-28, 0.00259 µM (active); in the assay with CCRF-CEM it was 0.00212 µM (active).
As for `Nc1ncnc2c(C3OC(CO)C(O)C3O)n[nH]c12` (configuration not stated), the GI50 with NCI/ADR-RES is 0.076 µM (active); with SN12C, 0.0652 µM (active); in the assay with UACC-62, 1.4 µM (inactive); in the assay with SNB-75, 0.196 µM (active); in the assay with SW-620, 0.106 µM (active); with A549, 0.428 µM (active). Further, the GI50 is 0.59 µM (active) in the assay with OVCAR-5 and 0.159 µM (active) in the assay with RPMI-8226.
Turning to `COc1ccc(-c2cc(O)c3cccnc3n2)cc1`, the GI50 in the assay with NCI/ADR-RES was 47.6 µM (inactive); with SN12C, 36.7 µM (inactive); in the assay with SK-OV-3 it was 26.7 µM (inactive); in the assay on UACC-62, 23.2 µM (inactive); in the assay with SW-620, 32.2 µM (inactive); in the assay on HCT-15, 34.3 µM. The GI50 was 53.7 µM (inactive) with A549; 64.6 µM (inactive) with DU-145; > 100 µM (inactive) in the assay on MDA-MB-231; > 100 µM (inactive) in the assay with OVCAR-5; 17.9 µM (inactive) with CAKI-1; 26.2 µM (inactive) in the assay with UACC-257. For the same compound, the GI50 in the assay with NCI-H226 was 45.1 µM (inactive); with M14, 28.3 µM (inactive); with RPMI-8226 it was 22.9 µM (inactive); with SK-MEL-28 it was 44 µM (inactive); with CCRF-CEM, 28.1 µM (inactive).
`CC[C@@]1(O)C(=O)OCc2c1cc1n(c2=O)Cc2cc3c(CN(C)C)c(O)ccc3nc2-1` [TOPOTECAN HYDROCHLORIDE]: the GI50 in the assay with NCI/ADR-RES was 0.193 µM (active); in the assay on SN12C, 0.0214 µM (active); in the assay with SNB-75 it was 0.0215 µM (active); in the assay on HCT-15, 0.395 µM; in the assay with A549, 0.0475 µM (active); in the assay with MDA-MB-231, 2.25 µM (inactive). The GI50 in the assay on OVCAR-5 was 0.121 µM (active); in the assay on CAKI-1 it was 0.015 µM (active); with UACC-257, 0.0834 µM (active); in the assay on NCI-H226 it was 0.0225 µM (active); with RPMI-8226 it was 0.276 µM (active); in the assay with SK-MEL-28, 0.239 µM (active). For the same compound, the GI50 in the assay with CCRF-CEM is 0.0125 µM (active).
